{
  "source": "PubChem BioAssay AID1259407",
  "about": "(Chemical Carcinogenesis Research Information System (CCRIS), 2018)",
  "test_system": "CCRIS mutagenicity, Ames/micronucleus/aberration tests",
  "experiment": "CCRIS mutagenicity studies",
  "key": {"[1]": {"settings": "Test System: AMES SALMONELLA TYPHIMURIUM, Strain/Indicator: TA98, Metabolic Activation: NONE, Method: STANDARD PLATE"}, "[2]": {"settings": "Test System: AMES SALMONELLA TYPHIMURIUM, Strain/Indicator: TA98, Metabolic Activation: RAT, LIVER, S-9, AROCLOR 1254, Method: STANDARD PLATE"}, "[3]": {"settings": "Test System: AMES SALMONELLA TYPHIMURIUM, Strain/Indicator: TA100, Metabolic Activation: RAT, LIVER, S-9, AROCLOR 1254, Method: STANDARD PLATE"}, "[4]": {"settings": "Test System: AMES SALMONELLA TYPHIMURIUM, Strain/Indicator: TA98, Metabolic Activation: NONE, Method: PREINCUBATION"}, "[5]": {"settings": "Test System: AMES SALMONELLA TYPHIMURIUM, Strain/Indicator: TA100, Metabolic Activation: NONE, Method: PREINCUBATION"}, "[6]": {"settings": "Test System: AMES SALMONELLA TYPHIMURIUM, Strain/Indicator: TA1535, Metabolic Activation: NONE, Method: PREINCUBATION"}, "[7]": {"settings": "Test System: AMES SALMONELLA TYPHIMURIUM, Strain/Indicator: TA1537, Metabolic Activation: NONE, Method: PREINCUBATION"}},
  "note": "Active and inactive are the calls of the source. The rule behind the calls is not given here.",
  "data": [
    {"smiles": "CC(=O)c1oc([N+](=O)[O-])c(Cl)c1Cl", "values": [
      {"measurement": "mutagenic call", "setting": "[1]", "result": "active; positive"},
      {"measurement": "mutagenic call", "setting": "Test System: AMES SALMONELLA TYPHIMURIUM, Strain/Indicator: TA100 (NR), Metabolic Activation: NONE, Method: STANDARD PLATE", "result": "active; positive"},
      {"measurement": "mutagenic call", "setting": "Test System: AMES SALMONELLA TYPHIMURIUM, Strain/Indicator: TA100, Metabolic Activation: NONE, Method: STANDARD PLATE", "result": "active; positive"},
      {"measurement": "mutagenic call", "setting": "Test System: AMES SALMONELLA TYPHIMURIUM, Strain/Indicator: TA100, Metabolic Activation: NONE, Method: STANDARD PLATE (ANAEROBIC INCUBATION)", "result": "active; positive"}
    ]},
    {"smiles": "Cc1cc2c(cc1C)-c1ccccc1C2", "values": [
      {"measurement": "mutagenic call", "setting": "[2]", "result": "inactive; negative"},
      {"measurement": "mutagenic call", "setting": "[3]", "result": "inactive; negative"}
    ]},
    {"smiles": "OC[C@@H](O)[C@@H](O[C@@H]1O[C@H](CO)[C@H](O)[C@H](O)[C@H]1O)[C@H](O)[C@@H](O)CO", "values": [
      {"measurement": "mutagenic call", "setting": "[4]", "result": "inactive; negative"},
      {"measurement": "mutagenic call", "setting": "Test System: AMES SALMONELLA TYPHIMURIUM, Strain/Indicator: TA98, Metabolic Activation: RAT, LIVER, S-9, PHENOBARBITAL AND 5,6-BENZOFLAVONE, Method: PREINCUBATION", "result": "inactive; negative"},
      {"measurement": "mutagenic call", "setting": "[5]", "result": "inactive; negative"},
      {"measurement": "mutagenic call", "setting": "Test System: AMES SALMONELLA TYPHIMURIUM, Strain/Indicator: TA100, Metabolic Activation: RAT, LIVER, S-9, PHENOBARBITAL AND 5,6-BENZOFLAVONE, Method: PREINCUBATION", "result": "inactive; negative"},
      {"measurement": "mutagenic call", "setting": "[6]", "result": "inactive; negative"},
      {"measurement": "mutagenic call", "setting": "Test System: AMES SALMONELLA TYPHIMURIUM, Strain/Indicator: TA1535, Metabolic Activation: RAT, LIVER, S-9, PHENOBARBITAL AND 5,6-BENZOFLAVONE, Method: PREINCUBATION", "result": "inactive; negative"},
      {"measurement": "mutagenic call", "setting": "[7]", "result": "inactive; negative"},
      {"measurement": "mutagenic call", "setting": "Test System: AMES SALMONELLA TYPHIMURIUM, Strain/Indicator: TA1537, Metabolic Activation: RAT, LIVER, S-9, PHENOBARBITAL AND 5,6-BENZOFLAVONE, Method: PREINCUBATION", "result": "inactive; negative"},
      {"measurement": "mutagenic call", "setting": "Test System: E. COLI, Strain/Indicator: WP2 UVRA, Metabolic Activation: NONE, Method: PREINCUBATION", "result": "inactive; negative"},
      {"measurement": "mutagenic call", "setting": "Test System: E. COLI, Strain/Indicator: WP2 UVRA, Metabolic Activation: RAT, LIVER, S-9, PHENOBARBITAL AND 5,6-BENZOFLAVONE, Method: PREINCUBATION", "result": "inactive; negative"}
    ]},
    {"smiles": "C=C(C)C(=O)OCC(Br)CBr", "note": "(stereo not given)", "values": [
      {"measurement": "mutagenic call", "setting": "Test System: AMES SALMONELLA TYPHIMURIUM, Strain/Indicator: TA98, Metabolic Activation: HAMSTER, LIVER, S-9, AROCLOR 1254 (10%), Method: PREINCUBATION", "result": "active; positive"},
      {"measurement": "mutagenic call", "setting": "[4]", "result": "inactive; negative"},
      {"measurement": "mutagenic call", "setting": "Test System: AMES SALMONELLA TYPHIMURIUM, Strain/Indicator: TA98, Metabolic Activation: RAT, LIVER, S-9, AROCLOR 1254 (10%), Method: PREINCUBATION", "result": "inactive; negative"},
      {"measurement": "mutagenic call", "setting": "Test System: AMES SALMONELLA TYPHIMURIUM, Strain/Indicator: TA100, Metabolic Activation: HAMSTER, LIVER, S-9, AROCLOR 1254 (10%), Method: PREINCUBATION", "result": "active; positive"},
      {"measurement": "mutagenic call", "setting": "[5]", "result": "inactive; negative"},
      {"measurement": "mutagenic call", "setting": "Test System: AMES SALMONELLA TYPHIMURIUM, Strain/Indicator: TA100, Metabolic Activation: RAT, LIVER, S-9, AROCLOR 1254 (10%), Method: PREINCUBATION", "result": "active; positive"},
      {"measurement": "mutagenic call", "setting": "Test System: AMES SALMONELLA TYPHIMURIUM, Strain/Indicator: TA1535, Metabolic Activation: HAMSTER, LIVER, S-9, AROCLOR 1254 (10%), Method: PREINCUBATION", "result": "active; positive"},
      {"measurement": "mutagenic call", "setting": "[6]", "result": "inactive; negative"},
      {"measurement": "mutagenic call", "setting": "Test System: AMES SALMONELLA TYPHIMURIUM, Strain/Indicator: TA1535, Metabolic Activation: RAT, LIVER, S-9, AROCLOR 1254 (10%), Method: PREINCUBATION", "result": "active; positive"},
      {"measurement": "mutagenic call", "setting": "Test System: AMES SALMONELLA TYPHIMURIUM, Strain/Indicator: TA1537, Metabolic Activation: HAMSTER, LIVER, S-9, AROCLOR 1254 (10%), Method: PREINCUBATION", "result": "inactive; negative"},
      {"measurement": "mutagenic call", "setting": "[7]", "result": "inactive; negative"},
      {"measurement": "mutagenic call", "setting": "Test System: AMES SALMONELLA TYPHIMURIUM, Strain/Indicator: TA1537, Metabolic Activation: RAT, LIVER, S-9, AROCLOR 1254 (10%), Method: PREINCUBATION", "result": "inactive; negative"}
    ]},
    {"smiles": "CN1CC=C(c2ccccc2)CC1", "values": [
      {"measurement": "mutagenic call", "setting": "[5]", "result": "inactive; negative"},
      {"measurement": "mutagenic call", "setting": "Test System: AMES SALMONELLA TYPHIMURIUM, Strain/Indicator: TA102, Metabolic Activation: NONE, Method: PREINCUBATION", "result": "inactive; negative"}
    ]},
    {"smiles": "CCOP(=O)(OCC)O/C(=C\\Cl)c1ccc(Cl)cc1Cl", "values": [
      {"measurement": "mutagenic call", "setting": "[1]", "result": "inactive; negative"},
      {"measurement": "mutagenic call", "setting": "[2]", "result": "inactive; negative"},
      {"measurement": "mutagenic call", "setting": "[3]", "result": "inactive; negative"},
      {"measurement": "mutagenic call", "setting": "Test System: AMES SALMONELLA TYPHIMURIUM, Strain/Indicator: TA100, Metabolic Activation: S-9 MIX, Method: STANDARD PLATE", "result": "inactive; negative"},
      {"measurement": "mutagenic call", "setting": "Test System: AMES SALMONELLA TYPHIMURIUM, Strain/Indicator: TA1535, Metabolic Activation: NONE, Method: STANDARD PLATE", "result": "inactive; negative"},
      {"measurement": "mutagenic call", "setting": "Test System: AMES SALMONELLA TYPHIMURIUM, Strain/Indicator: TA1535, Metabolic Activation: RAT, LIVER, S-9, AROCLOR 1254, Method: STANDARD PLATE", "result": "inactive; negative"},
      {"measurement": "mutagenic call", "setting": "Test System: AMES SALMONELLA TYPHIMURIUM, Strain/Indicator: TA1537, Metabolic Activation: NONE, Method: STANDARD PLATE", "result": "inactive; negative"},
      {"measurement": "mutagenic call", "setting": "Test System: AMES SALMONELLA TYPHIMURIUM, Strain/Indicator: TA1537, Metabolic Activation: RAT, LIVER, S-9, AROCLOR 1254, Method: STANDARD PLATE", "result": "inactive; negative"},
      {"measurement": "mutagenic call", "setting": "Test System: AMES SALMONELLA TYPHIMURIUM, Strain/Indicator: TA1538, Metabolic Activation: NONE, Method: STANDARD PLATE", "result": "inactive; negative"},
      {"measurement": "mutagenic call", "setting": "Test System: AMES SALMONELLA TYPHIMURIUM, Strain/Indicator: TA1538, Metabolic Activation: RAT, LIVER, S-9, AROCLOR 1254, Method: STANDARD PLATE", "result": "inactive; negative"}
    ]}
  ]
}
